Source: patent US20250339443A1, “METHOD FOR TREATING OR PREVENTING CALCIUM RELEASE-ACTIVATED CALCIUM CHANNEL OR DISCOIDIN DOMAIN RECEPTOR 2 RELATED DISORDERS OR CONDITIONS” (LumiSTAR Biotechnology, Inc., priority 2023, published 2025)
“Also recorded” adds a separate entry of the source.

Legend:
[1] = system: human cardiac fibroblast (HCF); test: TGF-β1-induced fibronectin deposition and α-SMA expression in HCF (immunofluorescence); type: cell-based; settings: for TGF-β1-increased cell spreading area: 10 μM co-treatment; for expression of fibronectin and α-SMA induced by TGF-β1: 10 μM, immunofluorescence
Method: (§1) Cells were co-treated with various compounds (10 μM) and TGF-β1 for 24 hours. Following this, cell lysates were harvested, and the protein expression was assessed by Western blot analysis. FIG. 3D depicts the examination of TGF-β1-induced fibronectin deposition and α-SMA expression in HCF treated with 10 μM of DMSO, BTP2, WRG-28, or Av through immunofluorescence staining. The images were captured using a confocal microscope, the Olympus FV-1000. FIG. 3E, FIG. 3F, and FIG. 3G illustrate the assessment of CRAC channel activity in HCF, MRC5, and rat HSC-T6. These cells were pretreated with 10 μM of BTP2, WRG-28, or Av for 45 min. The evaluation included measuring the second peak of each calcium wave and the rate of entry. Each bar within the figure represents the mean value derived from 77 to 91 cells for HCF, 31 to 49 cells for MRC5, and 43 to 94 cells for HSC-T6. In all the graphs, *, **, and *** denote p-values of <0.05, 0.01, and 0.001, respectively.
In TGF-β1-induced cell differentiation, cells were seeded on a type I collagen-coated tissue culture dish and then treated with different compounds for 4 hours. Cells were then treated with 10 ng/ml TGF-β1 for another 24 hours before protein analysis or immunocytochemistry study.
Cells cultured on chamber slides were fixed with 4% paraformaldehyde for 10 minutes followed by a permeabilization step by incubating cells in 0.5% Triton X-100 in PBS for 5 minutes. Cells were then incubated in SuperBlock blocking buffer (Thermo Scientific) for 1 h at room temperature. The protein expression was detected by incubating cells with specific primary antibodies followed by incubating cells with secondary antibodies against mouse or rabbit IgG conjugated with Alexa-488 or -594 nm (Invitrogen), respectively. Hoechst 33258 (10 μg/ml) is used for nuclei staining. All images were visualized and taken by confocal microscopy (Olympus, FV-1000).
To assess the overall effects of WRG-28 and Av on TGF-1-induced fibroblast activation, human cardiac fibroblasts (HCF), human pulmonary fibroblasts (MRC5), and rat hepatic stellate cells (HSC-T6) were employed. The upregulation of α-SMA induced by TGF-β1 treatment was observed, but this effect was suppressed by the co-treatment with various compounds, including BTP2, WRG-28, and Av, across all tested cell (FIG. 3A, FIG. 3B, and FIG. 3C). The expression of fibronectin and α-SMA induced by TGF-β1 in HCF was examined, and once again, the treatment with BTP2, WRG-28, or Av suppressed this effect (FIG. 3D).

[2] = system: rat hepatic stellate cells (HSC-T6); test: TGF-β1-induced activation of rat hepatic stellate cells (Western blot); type: cell-based; settings: HSC-T6, 10 μM co-treatment, 24 hours
Method: as §1, with “Each bar within the figure represents the mean value derived from 77 to 91 cells for HCF, 31 to 49 cells for MRC5, and 43 to 94 cells for HSC-T6. In all the graphs, *, **, and *** denote p-values of <0.05, 0.01, and 0.001, respectively.” left out
(§2) Cell lysates were harvested in RIPA buffer (150 mM NaCl, 1 mM EGTA, 50 mM Tris pH 7.4, 10% glycerol, 1% Triton X-100, 1% sodium deoxycholate, 0.1% SDS, and protease inhibitor cocktail) and collected from culture dish with cell scrapers. […] The protein expression levels were assessed by specific primary antibodies, including antibodies against phosphotyrosine (clone 4G10; Millipore), DDR2 (R&D), α-SMA (Sigma), Collagen 1a1 (Boster), E-cadherin (BD Biosciences), SGLT2 (Proteintech), NHE1 (Novus) and β-actin (Clone C4, Millipore), followed by incubating with secondary antibodies conjugated with HRP and detected by ECL kit (Thermo Scientific). […]

[3] = system: human cardiac fibroblast (HCF); test: TGF-β1-induced activation of human cardiac fibroblasts (Western blot); type: cell-based; settings: 10 μM co-treatment, 24 hours
Method: as §1, with “Each bar within the figure represents the mean value derived from 77 to 91 cells for HCF, 31 to 49 cells for MRC5, and 43 to 94 cells for HSC-T6. In all the graphs, *, **, and *** denote p-values of <0.05, 0.01, and 0.001, respectively.” left out
as §2

[4] = system: UUO-induced renal fibrosis; test: Unilateral ureteral obstruction (UUO) renal fibrosis model; type: in vivo, mouse; settings: for UUO-induced downregulation of E-cadherin (kidney, Western blot) / UUO-induced upregulation of integrin β1, DDR2, collagen 1a1, and α-SMA (kidney, Western blot) / area positively stained with fibrillar collagen (Sirius red) / histology: UUO-induced tubular dilation and interstitial expansion (H&E): 5 mg/kg/day for 7 days; for apoptotic tubular cells (TUNEL): 5 mg/kg/day for 7 days during ureter obstruction
Method: Surgical ligation was performed on the left ureter of 7-to-8-week-old male mice using a nylon surgical suture. Subsequently, the mice were treated with 5 mg/kg/day of DMSO (control), BTP2, WRG-28, or Av for 7 days. […] FIG. 5B illustrates the evaluation of fibrillar collagen expression levels via Sirius red staining. FIG. 5C presents the measurement of the Sirius red-positive area using Image J. FIG. 5D, FIG. 5E, FIG. 5F, FIG. 5G, and FIG. 5H depict the protein levels of integrin β1, DDR2, Collagen 1a1, α-SMA, and E-cadherin in kidney samples from mice treated with 5 mg/kg/day of BTP2 (FIG. 5D), WRG-28 (FIG. 5F), or Av (FIG. 5H), which were assessed by Western blot analysis. […] FIG. 5K illustrates the evaluation of apoptotic cells from 5-10 pictures in each condition.
Cell lysates were harvested in RIPA buffer (150 mM NaCl, 1 mM EGTA, 50 mM Tris pH 7.4, 10% glycerol, 1% Triton X-100, 1% sodium deoxycholate, 0.1% SDS, and protease inhibitor cocktail) and collected from culture dish with cell scrapers. For tissue sample preparation, half of the kidney tissues were cut into ˜1 mm3 and then put into 500 μl RIPA buffer in 2 ml tubes. Mechanical homogenizers by agitating beads at high speeds for 30 seconds were used for tissue protein extraction. Protein samples in supernatants were collected after centrifuging the tubes at 10000 g for 10 min at 4° C. 20-30 μg protein samples were resolved by 7.5% or 10% SDS-PAGE. The protein expression levels were assessed by specific primary antibodies, including antibodies against phosphotyrosine (clone 4G10; Millipore), DDR2 (R&D), α-SMA (Sigma), Collagen 1a1 (Boster), E-cadherin (BD Biosciences), SGLT2 (Proteintech), NHE1 (Novus) and β-actin (Clone C4, Millipore), followed by incubating with secondary antibodies conjugated with HRP and detected by ECL kit (Thermo Scientific).
Procedures involving animal subjects have been approved by the Institutional Animal Care and Use Committee (IACUC) at the National Laboratory Animal Center. 7-8 weeks old male C57BL/6 mice were obtained from the animal center. Unilateral ureteral obstruction (UUO) was performed by ligating the left ureter and mice were treated with 5 mg/kg/day DMSO, BTP2, WRG-28, or Av for 7 days after ligation. After 7 days, mice were sacrificed and the kidneys were removed and used for analysis. One-quarter of the kidney was fixed by 4% paraformaldehyde and embedded in paraffin or one-quarter of the kidney was embedded in the Tissue-Tek OCT compound. Half of the kidneys are used for protein analysis. In the reversible unilateral ureteral obstruction (RUUO) experiment, the ligated-left ureter was re-connected to the bladder after UUO surgery for 7 days. The compounds, WRG-28 and Av, were injected during ligation (7*/15d) or after ligation was released (7/15*d). To assess the kidney function, the right ureter was ligated the day before leaving mice in the metabolic cage. The urine and blood were collected for blood urea nitrogen (BUN) and creatinine (CRE) test.
Deparaffinize and rehydrate tissue slides were immersed in filtered Harris Hematoxylin for 10 seconds. After extensively washing in tap water, samples were immersed in Alcoholic-Eosin for 2 minutes. The tissue was then dehydrated and mounted by resinous medium and glass coverslips.
Deparaffinize and rehydrate tissue slides were stained with Picrosirius red for one hour, followed by an extensive wash with acidified water. After dehydration through 3 runs of change of 95% ethanol, 2 runs of change of 100% ethanol, and 3 runs of change of xylene, tissue slides were mounted by resinous mounting medium and glass coverslips. […]
The TUNEL assay kit was purchased from Abcam (ab206386). The procedure was carried out following the manufactory's instructions. […]

Row | SMILES | TGF-β1-increased cell spreading area [1] | expression of fibronectin and α-SMA induced by TGF-β1 [1] | upregulation of α-SMA induced by TGF-β1 [2] | upregulation of α-SMA induced by TGF-β1 [3] | UUO-induced downregulation of E-cadherin (kidney, Western blot) [4] | UUO-induced upregulation of integrin β1, DDR2, collagen 1a1, and α-SMA (kidney, Western blot) [4] | area positively stained with fibrillar collagen (Sirius red) [4] | histology: UUO-induced tubular dilation and interstitial expansion (H&E) [4] | apoptotic tubular cells (TUNEL) [4]
1 | CCNS(=O)(=O)c1ccc(COc2ccc3nc4ccc(=O)cc-4oc3c2)cc1 [WRG-28] | mitigated | suppressed | suppressed | suppressed | reversing | suppressed | significantly reduced | appeared to mitigate the effects caused by UUO | notably reduced; also recorded: significantly reduced
2 | Cc1nnsc1C(=O)Nc1ccc(-n2nc(C(F)(F)F)cc2C(F)(F)F)cc1 [BTP2] | mitigated | suppressed | suppressed | suppressed | reversing | suppressed | significantly reduced | appeared to mitigate the effects caused by UUO | notably reduced
